Reference: patent US5955501A, “Protein kinase C modulators O” (priority 1995, dated 1999)

Key:
[1] = tested on: diacylglycerol/phorboid-type binding sites in mouse skin and in purified preparations of protein kinase C isotypes; conditions: Dunn and Blumberg; Ryves et al. 1991; cited from earlier work
[2] = tested on: T-24 human bladder carcinoma cells; assay: Anti-cancer activity: methylene blue cell growth assay; format: cell-based; conditions: 5-6 days incubation, methylene blue staining, read-out: IC50 (drug concentration which leads to 50% of cells per well compared to control cultures)
Experimental: T-24 human bladder carcinoma cells were cultured in Eagle's minimal essential medium supplemented with 5% fetal bovine serum. Cells (1,000) were seeded into 96-well microtiter plates and incubated overnight. Serial dilutions of 20-deoxy-20(2'-hydroxyethylthio)phorbol 12-myristate 13-acetate (dissolved in DMSO and then diluted with culture medium) were added to the wells on day 1. The plates were incubated for 5-6 days to allow the control cultures to undergo at least 3 cell divisions. After the incubation period, the cells were fixed with glutaraldehyde, washed with water and stained with 0.05% methylene blue. After washing the dye was eluted with 3% HCl. The optical density per well was measured at 665 nm and compared using the formula:(OD Test-OD Start)/(OD Control-OD Start)×100.

[3] = tested on: HL-60 promyelocytic leukemia cells; assay: Anti-leukemic activity: MTT cell growth assay; format: cell-based; conditions: Homo sapiens, HL-60, 192 h, 8 days incubation, read-out: IC50 (drug concentration which leads to 50% of cells per well compared to control cultures)
Experimental: HL-60 promyelocytic leukemia cells were cultured in RPMI 1640 medium supplemented with 10% fetal bovine serum. Cells (7,500) were seeded into 96-well microtiter plates and incubated overnight. Serial dilutions of 20-deoxy-20-(2'-hydroxyethylthio)phorbol 12-myristate 13-acetate (dissolved in DMSo and then diluted with culture medium) were added to the wells on day 1. The plates were incubated for 8 days to allow the control cultures to undergo at least 3 cell divisions. The cell growth was monitored by using the calorimetric MTT (tetrazolium) assay [Mosmann, T., J. Immunol. Meth. 65: 55-63 (1983)]. After the incubation period, the cells were washed with phosphate-buffered saline in the microtiter plate. DMSO was then added to each well and the dish was put on a shaker for 20 min. The optical density was measured at 540 nm and compared using the formula:(OD Test OD Start)/(OD Control - OD Start) x 100.

HIV = assay: Anti-HIV activity in HIV-infected human peripheral blood lymphocytes (supernatant viral RNA and p24 core protein); format: cell-based; conditions: for EC50: Human immunodeficiency virus 1, Lymphocyte, from dose-response curves or by estimation from one or more experimental drug concentrations, read-out: anti-HIV ED50 for RNA; for percent inhibition of viral RNA production: at 10 μM
Experimental: Human peripheral blood lymphocytes were isolated from the buffy coat fractions of blood donations. The lymphocytes were then stimulated with 5 μg/ml of phytohemagglutinin for 48 hours. Prior to infection with HIV, the lymphocytes were washed and resuspended in mitogen-free medium. On day 0 the cells were infected with HIV and were cultured for four days in the presence or absence of graded concentrations of 20-deoxy-20-chlorophorbol 12,13-bis[(2',4'-difluorophenyl)acetate]. On days 3 and 4 the supernatant levels of total viral RNA and viral core protein p24 were determined at each drug concentration and dose-response curves were used to determine the concentration of drug giving 50% inhibition of production of viral RNA and of p24 core protein. At four days these ED50 values were less than 100 pM for both RNA and p24.
(§1) In a manner similar to Example 111, the anti-HIV ED50 values for RNA [drug concentration is in brackets] for the following diterpenoid compounds were determined from dose-response curves or by estimation from one or more experimental drug concentrations.
as §1, with “indolactam-type” for “diterpenoid”, “concentrations, data giving percent inhibition of viral RNA production at selected concentrations appear in parentheses:” for “concentrations.”
as §1, with “diacylglycero-type” for “diterpenoid”, “concentrations; data giving percent inhibition of viral RNA production at selected concentrations appear in parentheses: […]” for “concentrations.”

[4] = tested on: phorbol 12-myristate 13-acetate induced ear inflammation/erythema; assay: Mouse ear inflammation test: inhibition of phorbol 12-myristate 13-acetate induced inflammation/erythema; format: in vivo, mice
Experimental: Method: A stock solution of 300 pmoles of the standard inflammatory compound phorbol 12-myristate 13-acetate per 5 μL acetone was prepared. This solution was used to prepare four-fold dilutions of 20-deoxy-20-(2'-hydroxyethylthio)phorbol 12-myristate 13-acetate, prepared as in Example 3, covering concentrations of the latter ranging from 4 to 64,000 pmoles per 5 μL.

[5] = tested on: Human RPMI-7272 melanoma cells; assay: Anti-melanoma activity: inhibition of cell doublings; format: cell-based; conditions: 72 h of exposure, read-out: ID50 (concentration of drug required to inhibit cell doublings by 50%)
Experimental: Human RPMI-7272 melanoma cells were grown in the standard culture medium under normal incubation conditions. On day 1 the cells were cultured in the absence (control) or presence of graded concentrations (3-100 μg/ml) of 20-deoxy-20-(2'-hydroxyethylthio)phorbol 12-myristate 13-acetate in separate tubes. On day 4 after 72 h of exposure the number of cells in each tube was measured and the number of cell doublings determined. The drug treated tubes were compared to the control tube.

diacylglycerol site = assay: Diacylglycerol site binding activity (test not described at the place)
[6] = Anti-viral properties (test not described at the place)

## thymeleatoxin
[1]
  selectivity factor in dissociation constant among the different binding sites: 10-1000

## CCCC(=O)O[C@@H]1[C@@H](C)[C@@]2(O)[C@@H](C=C(CO)C[C@]3(O)C(=O)C(C)=C[C@@H]23)[C@@H]2C(C)(C)[C@]12OC(=O)CCC [phorbol 12,13-dibutyrate]
[1]
  selectivity factor in dissociation constant among the different binding sites: 10-1000

## CCCCCCCCCCCCCC(=O)O[C@@H]1[C@@H](C)[C@@]2(O)[C@@H](C=C(COC(=O)NC)C[C@]3(O)C(=O)C(C)=C[C@@H]23)[C@@H]2C(C)(C)[C@]12OC(C)=O [phorbol 12-myristate 13-acetate 20-methylcarbamate]
[2]
  IC50: 6.3 µM
[3]
  IC50: 2.6 µM

## CC1=C[C@H]2[C@@]3(O)[C@H](C)C[C@]4(OC(=O)C(C)C)[C@H]([C@@H]3C=C(CO)C[C@]2(O)C1=O)C4(C)C [12-deoxyphorbol 13-isobutyrate]
[1]
  selectivity factor in dissociation constant among the different binding sites: 10-1000

## CCCCCCCCCCCCCC(=O)O[C@@H]1[C@@H](C)[C@@]2(O)[C@@H](C=C(CC#N)C[C@]3(O)C(=O)C(C)=C[C@@H]23)[C@@H]2C(C)(C)[C@]12OC(C)=O [20-deoxy-20-cyanophorbol 12-myristate 13-acetate]
[2]
  IC50: 2 µM
HIV
  EC50: 1.5 µM

## CCCCCCCCCCCCCC(=O)O[C@@H]1[C@@H](C)[C@@]2(O)[C@@H](C=C(CSCCO)C[C@]3(O)C(=O)C(C)=C[C@@H]23)[C@@H]2C(C)(C)[C@]12OC(C)=O [20-deoxy-20-(2'-hydroxyethylthio)phorbol 12-myristate 13-acetate]
[2]
  IC50: 13 µM
[4]; applied with 300 pmoles phorbol 12-myristate 13-acetate per 5 μL acetone to inside of right ear, observed 1 to 48 hours
  inhibition of phorbol 12-myristate 13-acetate induced ear inflammation/erythema: Inhibition of the phorbol 12-myristate 13-acetate induced inflammation was observed at the medium and higher concentrations
[3]
  IC50: 5.4 µM
[5]
  IC50: 42 µM

## CC1=C[C@H]2[C@@]3(O)[C@H](C)C[C@]4(OC(=O)Cc5ccccc5)[C@H]([C@@H]3C=C(CO)C[C@]2(O)C1=O)C4(C)C [12-deoxyphorbol 13-phenylacetate]
[1]
  selectivity factor in dissociation constant among the different binding sites: 10-1000

## CCCCCCCCCCCCCC(=O)O[C@@H]1[C@@H](C)[C@@]2(O)[C@@H](C=C(CCC3=C[C@H]4[C@@H]5C(C)(C)[C@]5(OC(C)=O)[C@H](OC(=O)CCCCCCCCCCCCC)[C@@H](C)[C@]4(O)[C@@H]4C=C(C)C(=O)[C@@]4(O)C3)C[C@]3(O)C(=O)C(C)=C[C@@H]23)[C@@H]2C(C)(C)[C@]12OC(C)=O [20-Deoxy-20-[20'-deoxyphorbol-20'-yl(12'-myristate 13'-acetate)]phorbol 12-Myristate 13-Acetate]
Diacylglycerol site
  diacylglycerol site binding activity: still exhibits diacylglycerol site binding activity
[6]
  anti-viral properties: anti-viral properties

## CC(C)C1C(=O)NC(C(=O)OCC(O)CO)Cc2c[nH]c3cccc(c23)N1C (stereo not shown) [9-deshydroxymethyl-9-(2',3'-dihydroxy)propyloxycarbonylindolactam V]
HIV
  percent inhibition of viral RNA production: 20%

## O=C1CCCCCCCCCCCCCCCCCCC(=O)OC(CSCCO)CO1 (stereo not shown) [3-[(2'-hydroxyethylthio)methyl]-1,6-dioxo-2,5-dioxacyclotetracosane]
HIV
  EC50: 0.01 µM

## CC1=C[C@H]2[C@@]3(O)[C@H](C)[C@@H](OC(=O)Cc4ccc(F)cc4F)[C@]4(OC(=O)Cc5ccc(F)cc5F)[C@H]([C@@H]3C=C(COC(=O)Oc3ccc(O)cc3)C[C@]2(O)C1=O)C4(C)C [20-O-(4'-hydroxyphenoxy)carbonylphorbol 12,13-bis[(2',4'-difluorophenyl)acetate]]
HIV
  EC50: < 0.01 µM

## 9-deshydroxymethyl-9-[N-(2'-glucosyl)]carboxamidoindolactam V
HIV
  percent inhibition of viral RNA production: 35%

## CC1=C[C@H]2[C@@]3(O)[C@H](C)[C@@H](OC(=O)Cc4ccc(F)cc4F)[C@]4(OC(=O)Cc5ccc(F)cc5F)[C@H]([C@@H]3C=C(CNc3cccc(CO)c3)C[C@]2(O)C1=O)C4(C)C [20-deoxy-20-[(3'-hydroxymethylphenyl)amino]phorbol 12,13-bis[(2',4'-difluorophenyl)acetate]]
HIV
  EC50: 0.18 µM

## C=C1C[C@]2(O)C(=O)C(C)=C[C@H]2[C@@]2(O)[C@H](C)[C@@H](OC(=O)CCCCCCCCCCCCC)[C@]3(OC(C)=O)[C@H]([C@@H]2C1CO)C3(C)C (stereo partly drawn) [12-β-myristoyloxy-13-acetoxy-4,9-dihydroxy-7-hydroxymethyl-1,6(20)-tigliadien-3-one]
[2]
  IC50: 5.5 µM
[4]; general statement in the description, test not named there
  anti-inflammatory activity: good anti-inflammatory activity
[3]
  IC50: 5.2 µM
